Test results: patent US6696621B2, “Selectable marker in plants” (Paradigm Genetics, Inc., priority 2001, dated 2004)

B1: NRG protein: novel nourseothricin N-acetyltransferase, amino acid sequence of SEQ ID NO. 1; confers resistance to nourseothricin (protein)
chain: MTTLDDTAYRYRTSVPGDAEAIEALDGSFTTDTVFRVTATGDGFTLREVPVDPPLTKVFPDDESDDESDDGEDGDPDSRTFVAYGDDGDLAGFVVVSYSGWNRRLTVEDIEVAPEHRGHGVGRALMGLATEFARERGAGHLWLEVTNVNAPAIHAYRRMGFTLCGLDTALYDGTASDGEQALYMSMPCP
modifications: Novel protein conferring resistance to the antibiotic known as nourseothricin

Experiments:
[1] = system: wildtype Arabidopsis thaliana; test: Dose response of clonNAT sprayed on wildtype Arabidopsis thaliana seedlings; assay type: in vivo; settings: sprayed on three consecutive days with 0.005% Silwet L-77; assessed 36 hours after last spray
Experimental: a) Dose response. The selection conditions for plants that are transgenic with the nrg gene are determined in a dose response experiment. From about 2000 to 3000 wildtype Arabidopsis thaliana seeds per pot are sown in 5″×5″ (13 cm×13 cm) soil pots. When the first true leaves of the seedlings have emerged after approximately 7 days, the seedlings are sprayed with a hand-held sprayer until all leaf material is completely wet on three consecutive days with a solution of 0.005% Silwet L-77 (50 ul/l) in water and variable concentrations of clonNAT (1, 5, 10, 20, 50, 100, 250, 500 mg/l). The results are assessed 36 hours after the last spray. A useful range of concentration of clonNAT for selection of transgenic Arabidopsis plants (as assessed as concentrations that kill non-transgenic Arabidopsis plants after applying the described sprayings) is determined within a range of about 20 to about 1000 mg/l or more, preferably about 200 mg/l or less.

[2] = system: rice callus, derived from immature rice embryos of the variety TP309; test: Dose response of clonNAT on rice callus growth and survival; assay type: cell-based; settings: 26° C. in the dark
Experimental: a) Dose response. For selection of transgenic calli based on resistance to clonNAT following Agrobacterium-mediated transformation of rice callus material, a dose response experiment is made to determine the concentration of clonNAT in callus growth medium in order to inhibit the growth of rice callus, or to kill the rice cells. Growth media (GM) used for rice callus comprise the following basic components: N6 salts (Duchefa) 3.95 g/l; B5 vitamins (Duchefa) 112 mg/l; proline (Duchefa) 500 mg/l; glutamine (Duchefa) 500 mg/l; casein hydrolysate (Duchefa) 500 mg/l. […]
Several pieces of rice callus, derived from immature rice embryos of the variety TP309 (National Small Grain Collection, USDA, ARS, Aberdeen, Id.) are put on these plates, the plates are incubated at 26° C. in the dark, and survival of the embryos and proliferation of the embryo cells are observed every day. Based on the survival rate of the embryos on the media plates containing different concentrations of clonNAT, a useful concentration of clonNAT for selection of transgenic rice is determined to be within a range of about 20 to about 1000 mg/l or more, preferably about 200 mg/l or less. […]

[3] = Ability of NRG protein to impart resistance to nourseothricin; settings: NRG protein with aspartate instead of glycine at position 70

| Molecule | preferred concentration of clonNAT for selection of transgenic Arabidopsis plants [1] [mg/L] | preferred concentration of clonNAT for selection of transgenic rice ([2]; callus growth medium plates, based on survival rate of embryos) [mg/L] | fate of embryo-derived rice callus on clonNAT-containing medium plates ([2]; clonNAT 200 mg/l selection plates, after 4-5 weeks) | ability to impart resistance to the nourseothricin antibiotic [3] |
| --- | --- | --- | --- | --- |
| 2-[4-O-Carbamoyl-2-deoxy-2-(3,6-diaminohexan-amido)-B-D-gulopyranoslamino)-3,3a,5 ,6,7,7a-hexahydro-5-hydroxy-4H-imidazo[4,5-c]pyridin-4one dihydrogensulphate [clonNAT] | ≤ 200 | ≤ 200 | died |  |
| B1 |  |  |  | retains the ability to impart resistance |
